Source: patent US20260294995A1, “COMPOSITION FOR ORAL USE WITH HMG-COA REDUCTASE ENZYME INHIBITING ACTIVITY” (DIFASS INTERNATIONAL S.P.A., priority 2023, published 2026)

Key:
HMG-CoA reductase [1] = molecular target: T1, HMG-CoA reductase (Homo sapiens, UniProt P04035); assay: HMG-CoA reductase inhibition, spectrophotometric (absorbance at 340 nm, oxidation of NADPH); type: biochemical; conditions: for Percentage inhibition HMGR: positive control
T1 construct: oxidation of NADPH by the catalytic subunit of HMG-CoA reductase; purchased
T1 sequence (P04035 426-888 limits assumed): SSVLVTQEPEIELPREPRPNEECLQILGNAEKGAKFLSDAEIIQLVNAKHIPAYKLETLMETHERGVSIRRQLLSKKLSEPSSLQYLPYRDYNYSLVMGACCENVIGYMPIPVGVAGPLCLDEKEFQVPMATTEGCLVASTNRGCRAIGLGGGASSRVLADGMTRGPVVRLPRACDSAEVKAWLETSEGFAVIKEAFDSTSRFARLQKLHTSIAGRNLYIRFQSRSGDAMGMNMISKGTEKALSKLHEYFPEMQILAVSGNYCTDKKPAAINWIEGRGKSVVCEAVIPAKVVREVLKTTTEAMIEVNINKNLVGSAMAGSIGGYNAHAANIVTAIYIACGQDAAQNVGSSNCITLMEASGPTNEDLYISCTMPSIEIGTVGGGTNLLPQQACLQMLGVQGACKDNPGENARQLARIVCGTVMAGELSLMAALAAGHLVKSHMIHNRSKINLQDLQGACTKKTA
Protocol: The screening was performed with an analysis kit that evaluates inhibition of HMG-CoA reductase. The assay was based on spectrophotometric measurement of the reduction of absorbance at 340 nm, which represents oxidation of NADPH by the catalytic subunit of HMG-CoA reductase in the presence of the HMG-COA substrate. The reaction is as follows: HMG-CoA+2NADPH+2H^+ ? mevalonate+2NADP^++CoA-SH. Modulation of the activity of the enzyme, and in particular its inhibition, was calculated as % variation relative to the activity measured under the control condition, i.e. in the absence of any inhibitor. The biochemical system was verified with the use of a positive control, pravastatin, at the doses of 212.5 mg (100 mM), 80 mg, 40 mg and 20 mg.
A first test session was conducted with pravastatin as positive control at the theoretical concentration calculated as administration dose in the systemic circulation (5 L, mean blood volume of an adult weighing about 70 kg);
Each test was conducted in triplicate, and the compounds were tested at different concentrations. […]

[2] = 2022 meta-analysis; dose an essential factor; cited from earlier work
[3] = 250 mg daily for three months, patients with metabolic syndrome; cited from earlier work
HMG-CoA reductase [4] = molecular target: T2, HMG-CoA reductase (Homo sapiens, UniProt P04035); conditions: 10 μg/mL; compared with pravastatin; cited from earlier work
T2 sequence (P04035 1-888): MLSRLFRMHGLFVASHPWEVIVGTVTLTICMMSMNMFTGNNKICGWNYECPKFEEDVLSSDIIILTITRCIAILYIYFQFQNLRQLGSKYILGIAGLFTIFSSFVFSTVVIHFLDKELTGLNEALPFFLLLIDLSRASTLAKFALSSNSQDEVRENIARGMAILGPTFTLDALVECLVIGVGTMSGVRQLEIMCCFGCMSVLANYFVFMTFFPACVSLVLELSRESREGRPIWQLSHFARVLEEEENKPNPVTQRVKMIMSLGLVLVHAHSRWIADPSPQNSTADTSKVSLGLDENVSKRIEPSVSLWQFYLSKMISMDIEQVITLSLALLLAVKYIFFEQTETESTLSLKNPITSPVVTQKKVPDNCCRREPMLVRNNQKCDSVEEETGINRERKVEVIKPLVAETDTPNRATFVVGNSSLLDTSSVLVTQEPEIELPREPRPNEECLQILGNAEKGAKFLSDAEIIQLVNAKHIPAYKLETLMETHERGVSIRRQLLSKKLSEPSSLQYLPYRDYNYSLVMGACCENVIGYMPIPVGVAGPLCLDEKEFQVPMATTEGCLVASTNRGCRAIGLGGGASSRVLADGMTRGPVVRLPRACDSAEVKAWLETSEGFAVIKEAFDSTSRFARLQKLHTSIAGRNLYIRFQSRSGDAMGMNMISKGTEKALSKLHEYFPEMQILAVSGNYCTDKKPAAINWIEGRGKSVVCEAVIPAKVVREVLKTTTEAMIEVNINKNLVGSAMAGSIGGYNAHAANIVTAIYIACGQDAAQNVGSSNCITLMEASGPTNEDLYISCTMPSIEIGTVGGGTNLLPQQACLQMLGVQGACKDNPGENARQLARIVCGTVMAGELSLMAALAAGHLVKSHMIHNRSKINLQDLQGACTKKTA

[5] = oral doses from 100 mg to 2800 mg; cited from earlier work
HMG-CoA reductase [6] = molecular target: T3, HMG-CoA reductase (Rattus norvegicus, UniProt P51639); conditions: 25 μM; glial cells; cited from earlier work
T3 construct: in an in vitro model with glial cells; host or cells: C6 glioma cells (endogenous enzyme, inferred)
T3 sequence (P51639 1-887): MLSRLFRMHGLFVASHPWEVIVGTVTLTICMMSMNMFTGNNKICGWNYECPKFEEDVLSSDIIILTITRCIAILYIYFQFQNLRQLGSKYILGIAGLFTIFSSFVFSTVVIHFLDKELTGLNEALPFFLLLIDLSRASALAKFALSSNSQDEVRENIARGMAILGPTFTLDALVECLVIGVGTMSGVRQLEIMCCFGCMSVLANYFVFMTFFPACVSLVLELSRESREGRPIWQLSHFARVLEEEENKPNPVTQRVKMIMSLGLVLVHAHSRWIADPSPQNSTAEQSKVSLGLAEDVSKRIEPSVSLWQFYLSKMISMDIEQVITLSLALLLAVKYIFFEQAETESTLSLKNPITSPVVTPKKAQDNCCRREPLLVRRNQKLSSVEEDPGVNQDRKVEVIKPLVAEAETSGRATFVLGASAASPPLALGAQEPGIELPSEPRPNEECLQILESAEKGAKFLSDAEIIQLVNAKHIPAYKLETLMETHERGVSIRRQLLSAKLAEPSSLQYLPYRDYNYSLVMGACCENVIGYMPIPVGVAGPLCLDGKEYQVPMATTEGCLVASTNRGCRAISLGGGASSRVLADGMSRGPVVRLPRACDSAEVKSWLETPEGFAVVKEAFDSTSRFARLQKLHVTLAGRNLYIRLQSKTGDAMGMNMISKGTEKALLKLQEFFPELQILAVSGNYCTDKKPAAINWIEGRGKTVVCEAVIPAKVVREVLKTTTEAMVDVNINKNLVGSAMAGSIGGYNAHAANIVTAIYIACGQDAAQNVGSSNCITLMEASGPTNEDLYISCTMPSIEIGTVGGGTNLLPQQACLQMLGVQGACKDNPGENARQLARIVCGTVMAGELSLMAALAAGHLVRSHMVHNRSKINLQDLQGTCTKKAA

HMG-COA reductase [7] = conditions: rat hepatocytes, in vitro; cited from earlier work

SMILES: CC[C@H](C)C(=O)O[C@H]1C[C@H](O)C=C2C=C[C@H](C)[C@H](CC[C@@H](O)C[C@@H](O)CC(=O)O)[C@H]21 [Pravastatin, pravastatin]
- Percentage inhibition HMGR (HMG-CoA reductase [1]; 20 mg (theoretical concentration of dose in 5 L blood)): 56.3%
- Percentage inhibition HMGR (HMG-CoA reductase [1]; 40 mg (theoretical concentration of dose in 5 L blood)): 68.9%
- Percentage inhibition HMGR (HMG-CoA reductase [1]; 80 mg (theoretical concentration of dose in 5 L blood)): 85.9%

SMILES: Oc1ccc(C=Cc2cc(O)cc(O)c2)cc1 [Resveratrol, resveratrol]
- total cholesterol and LDL cholesterol levels [2]: can be useful to reduce total cholesterol and LDL cholesterol levels
- inhibition at 0.0102 µg/mL (HMG-CoA reductase [1]; Test 1, 0.0102 μg/ml, 1:200 dilution, oral dose 10 mg, read-out: Percentage inhibition HMGR): 0%
- total cholesterol level [3]: reduces the total cholesterol level

SMILES: O=C(O)[C@H]1O[C@@H](Oc2cc3oc(-c4ccccc4)cc(=O)c3c(O)c2O)[C@H](O)[C@@H](O)[C@@H]1O [baicalin]
- HMG-COA reductase inhibitory activity (HMG-CoA reductase [4]): lower than with pravastatin
- proportionality in absorption depending on the oral dose [5]: did not indicate a proportionality in absorption

SMILES: OCCc1ccc(O)c(O)c1 [hydroxytyrosol]
- reduction of HMG-COA reductase activity (HMG-CoA reductase [6]): 16%
- synthesis of fatty acids and cholesterol (HMG-CoA reductase [6]): downregulating effect

SMILES: C/C=C1/[C@H](O[C@@H]2O[C@H](CO)[C@@H](O)[C@H](O)[C@H]2O)OC=C(C(=O)OC)[C@H]1CC(=O)OCCc1ccc(O)c(O)c1 [oleuropein]
- activity of HMG-COA reductase (HMG-COA reductase [7]): reduces the activity of hydroxymethylglutaryl-CoA reductase
- cholesterol synthesis (HMG-COA reductase [7]): reduction in cholesterol synthesis
